Data taken from patent publication US8916599B2, “1H-benz imidazole-5-carboxamides as anti-inflammatory agents” (Orexo AB, priority 2008, dated 2014).

What follows are compounds tested against T1, recombinant human mPGES-1 (Homo sapiens, UniProt O14684) (assay: mPGES-1 inhibition test (microsomes, PGH2 substrate, HTRF detection of PGE2)). Settings: inhibition of mPGES-1 at 10 μM.
T1 construct: made in house; host or cells: Rosetta E. coli (microsomal/membrane fraction)
T1 sequence (O14684 1-152): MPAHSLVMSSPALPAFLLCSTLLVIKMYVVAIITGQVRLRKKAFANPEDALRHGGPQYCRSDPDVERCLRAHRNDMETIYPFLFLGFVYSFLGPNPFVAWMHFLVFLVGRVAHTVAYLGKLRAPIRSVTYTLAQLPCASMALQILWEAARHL
Format: biochemical
In short: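 Microsomes from E. coli Rosetta expressing the enzyme, in 0.1 M KPi pH 7.4 with 2.5 mM GSH, were preincubated 25 min at room temperature with inhibitor in DMSO. PGH2 was added, the reaction stopped after one minute with acidified FeCl2, and PGE2 quantified by HTRF after 750-fold dilution.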

Row | SMILES | inhibition at 10 µM [%]
1 | O=C(Nc1c(Cl)cc(Cl)cc1Cl)c1ccc2[nH]c(Nc3c(Cl)cccc3Cl)nc2c1 [Example 313, 2-(2,6-Dichloro-phenylamino)-1H-benzimidazole-5-carboxylic acid (2,4,6-trichloro-phenyl)-amide] | 99
2 | Cc1cc2nc(NC(=O)c3ccc4[nH]c(Nc5c(Cl)cccc5Cl)nc4c3)[nH]c2cc1C [Example 314, 2-(2,6-Dichloro-phenylamino)-1H-benzimidazole-5-carboxylic acid (5,6-dimethyl-1H-benzimidazol-2-yl)-amide] | 97
3 | Cn1c(Nc2c(Cl)cccc2Cl)nc2cc(C(=O)Nc3ccc(Br)cc3)ccc21 [Example 316, 2-(2,6-Dichloro-phenylamino)-1-methyl-1H-benzimidazole-5-carboxylic acid (4-bromo-phenyl)-amide] | 100
4 | Cn1c(Nc2ccccc2OC(F)(F)F)nc2cc(C(=O)Nc3ccc(Br)cc3)ccc21 [Example 320, 1-Methyl-2-(2-trifluoromethoxy-phenylamino)-1H-benzimidazole-5-carboxylic acid (4-bromo-phenyl)-amide] | 100
5 | Cc1ccc(NC(=O)c2ccc3[nH]c(Nc4c(Cl)cccc4Cl)nc3c2)nc1 [Example 321, 2-(2,6-Dichloro-phenylamino)-1H-benzimidazole-5-carboxylic acid (5-methyl-pyridin-2-yl)-amide] | 93
6 | Cc1ccc(Cl)c(Nc2nc3cc(C(=O)Nc4ccc(Br)cc4)ccc3[nH]2)c1Cl [Example 322, 2-(2,6-Dichloro-3-methyl-phenylamino)-1H-benzimidazole-5-carboxylic acid (4-bromo-phenyl)-amide] | 100
7 | Cn1c(Nc2c(Cl)cccc2Cl)nc2cc(C(=O)NC3CCCCC3)cc(Br)c21 [Example 326, 7-Bromo-2-(2,6-dichloro-phenylamino)-1-methyl-1H-benzimidazole-5-carboxylic acid cyclohexylamide] | 96
8 | Cc1ccc(NC(=O)c2ccc3c(c2)nc(Nc2c(Cl)cccc2Cl)n3C)nc1 [Example 327, 2-(2,6-Dichloro-phenylamino)-1-methyl-1H-benzimidazole-5-carboxylic acid (5-methyl-pyridin-2-yl)-amide] | 100
9 | N#Cc1ccc(NC(=O)c2ccc3[nH]c(Nc4c(Cl)cccc4Cl)nc3c2)nc1 [Example 329, 2-(2,6-Dichloro-phenylamino)-1H-benzimidazole-5-carboxylic acid (5-cyano-pyridin-2-yl)-amide] | 89
10 | O=C(Nc1ccc(Br)cc1)c1ccc2[nH]c(Nc3cccc(Cl)c3C(F)(F)F)nc2c1 [Example 333, 2-(3-Chloro-2-trifluoromethyl-phenylamino)-1H-benzimidazole-5-carboxylic acid (4-bromo-phenyl)-amide] | 94
11 | Cc1cccnc1NC(=O)c1ccc2c(c1)nc(Nc1c(Cl)cccc1Cl)n2C [Example 341, 2-(2,6-Dichloro-phenylamino)-1-methyl-1-H-benzimidazole-5-carboxylic acid (3-methyl-pyridin-2-yl)-amide] | 92
12 | Cn1c(Nc2c(Cl)cccc2Cl)nc2cc(C(=O)Nc3cccc(Cl)n3)ccc21 [Example 347, 2-(2,6-Dichloro-phenylamino)-1-methyl-1H-benzimidazole-5-carboxylic acid (6-chloro-pyridin-2-yl)-amide] | 100
13 | CCCCOc1cccc(NC(=O)c2ccc3c(c2)nc(Nc2c(Cl)cccc2Cl)n3C)n1 [Example 349, 2-(2,6-Dichloro-phenylamino)-1-methyl-1-H-benzimidazole-5-carboxylic acid (6-butoxy-pyridin-2-yl)-amide] | 100
14 | CCNC(=O)c1cc(Br)c2c(c1)nc(Nc1c(Cl)cccc1Cl)n2C [Example 352, 7-Bromo-2-(2,6-dichloro-phenylamino)-1-methyl-1H-benzimidazole-5-carboxylic acid ethylamide] | 71
15 | CC(C)NC(=O)c1cc(Br)c2c(c1)nc(Nc1c(Cl)cccc1Cl)n2C [Example 353, 7-Bromo-2-(2,6-dichloro-phenylamino)-1-methyl-1H-benzimidazole-5-carboxylic acid isopropylamide] | 75
16 | Cn1c(Nc2c(F)cccc2Cl)nc2cc(C(=O)NC3CCC(C(C)(C)C)CC3)c(F)cc21 (stereo not shown) [Example 354, N-(4-tert.-Butylcyclohexyl)-2-(2-chloro-6-fluorophenylamino)-6-fluoro-1-methyl-1H-benzimidazole-5-carboxamide] | 100
17 | Cn1c(Nc2c(Cl)cccc2Cl)nc2cc(C(=O)NC3CCCC(C)(C)C3)c(F)cc21 (stereo not shown) [Example 355, 2-(2,6-Dichlorophenylamino)-N-(3,3-dimethylcyclohexyl)-6-fluoro-1-methyl-1H-benzimidazole-5-carboxamide] | 100

Row | SMILES | inhibition at 10 µM [%]
18 | CC(C)(C)[C@H]1CC[C@H](NC(=O)c2cc3nc(Nc4c(Cl)cccc4Cl)[nH]c3cc2F)CC1 [Example 356, N-((1r,4r)-4-tert.-Butylcyclohexyl)-2-(2,6-dichlorophenylamino)-6-fluoro-1H-benzimidazole-5-carboxamide] | 100
19 | CC(C)(C)[C@H]1CC[C@H](NC(=O)c2cc3nc(Nc4c(F)cccc4Cl)[nH]c3cc2F)CC1 [Example 357, N-((1r,4r)-4-tert.-Butylcyclohexyl)-2-(2-chloro-6-fluorophenylamino)-6-fluoro-1H-benzimidazole-5-carboxamide] | 100
20 | Cn1c(Nc2c(F)cccc2C(F)(F)F)nc2cc(C(=O)Nc3ccc(Br)cc3)ccc21 [Example 358, N-(4-Bromophenyl)-2-(2-fluoro-6-trifluoromethyl-phenylamino)-1-methyl-1H-benzimidazole-5-carboxamide] | 100
21 | COc1cc2c(cc1C(=O)Nc1ccc(Br)cc1)nc(Nc1c(Cl)cccc1Cl)n2C [Example 359, 2-(2,6-Dichlorophenylamino)-6-methoxy-1-methyl-N-(4-bromo-phenyl)-1H-benzimidazole-5-carboxamide] | 100
22 | CCC1CCC(NC(=O)c2cc3nc(Nc4c(F)cccc4Cl)n(C)c3cc2F)CC1 (stereo not shown) [Example 362, N-(4-Ethylcyclohexyl)-2-(2-chloro-6-fluorophenylamino)-6-fluoro-1-methyl-1H-benzimidazole-5-carboxamide] | 100
23 | COc1cc2c(cc1C(=O)NCc1ncccc1C1CC1)nc(Nc1c(Cl)cccc1Cl)n2C [Example 367, N-((3-Cyclopropylpyridin-2-yl)-methyl)-2-(2,6-dichlorophenylamino)-6-methoxy-1-methyl-1H-benzimidazole-5-carboxamide] | 100
24 | CC(C)[C@H]1CC[C@H](NC(=O)c2cc3nc(Nc4c(F)cccc4Cl)n(C)c3cc2F)CC1 [Example 368] | 100
25 | COc1cc2c(cc1C(=O)N[C@H]1CC[C@H](C(F)(F)F)CC1)nc(Nc1c(Cl)cccc1Cl)n2C [Example 369, 2-(2,6-Dichlorophenylamino)-6-methoxy-1-methyl-N-((1r,4r)-4-trifluoromethyl-cyclohexyl)-1H-benzimidazole-5-carboxamide] | 100
26 | COc1cc2c(cc1C(=O)NCc1ncccc1C(F)(F)F)nc(Nc1c(Cl)cccc1Cl)n2C [Example 370, 2-(2,6-Dichlorophenylamino)-6-methoxy-1-methyl-N-((3-trifluoromethyl-pyridin-2-yl)methyl)-1H-benzimidazole-5-carboxamide] | 100
27 | COc1cc2[nH]c(Nc3c(Cl)cccc3Cl)nc2cc1C(=O)Nc1ccc(Br)cc1 [Example 371, N-(4-Bromophenyl)-2-(2,6-dichlorophenylamino)-6-methoxy-1H-benzimidazole-5-carboxamide] | 100
28 | Cc1cnc(NC(=O)c2cc3nc(Nc4c(Cl)cccc4Cl)n(C)c3cc2F)cc1Cl [Example 372, N-(4-Chloro-5-methylpyridin-2yl)-2-(2,6-dichlorophenylamino)-6-fluoro-1-methyl-1H-benzimidazole-5-carboxamide] | 98
29 | CCCCCCNC(=O)c1cc2nc(Nc3c(Cl)cccc3Cl)n(C)c2cc1F [Example 373, 2-(2,6-Dichlorophenylamino)-6-fluoro-N-hexyl-1-methyl-1H-benzimidazole-5-carboxamide] | 100
30 | CC(C)(C)[C@H]1CC[C@@H](NC(=O)c2cc3nc(Nc4c(Cl)cccc4Cl)[nH]c3cc2F)CC1 [Example 374, N-((1s,4s)-4-tert.-Butylcyclohexyl)-2-(2,6-dichlorophenylamino)-6-fluoro-1H-benzimidazole-5-carboxamide] | 100
31 | CC(C)[C@H]1CC[C@H](NC(=O)c2cc3nc(Nc4c(Cl)cccc4Cl)[nH]c3cc2F)CC1 [Example 375] | 100
32 | COc1cc2[nH]c(Nc3c(Cl)cccc3Cl)nc2cc1C(=O)N[C@H]1CC[C@H](C(F)(F)F)CC1 [Example 376, 2-(2,6-Dichlorophenylamino)-6-methoxy-N-((1r,4r)-4-trifluoromethyl-cyclohexyl)-1H-benzimidazole-5-carboxamide] | 100
33 | CC(C)(C)[C@H]1CC[C@@H](NC(=O)c2cc3nc(Nc4c(F)cccc4Cl)[nH]c3cc2F)CC1 [Example 378, N-((1s,4s)-4-tert.-Butylcyclohexyl)-2-(2-chloro-6-fluorophenylamino)-6-fluoro-1H-benzimidazole-5-carboxamide] | 100
34 | Cn1c(Nc2cc(Cl)ccc2Cl)nc2cc(C(=O)Nc3ccc(Br)cc3)ccc21 [Example 380, N-(4-Bromophenyl)-2-(2,5-dichlorophenylamino)-1-methyl-1H-benzimidazole-5-carboxamide] | 100
